Values joined by “and” are separate entries in the source; they are usually repeats but may differ in a detail not shown here. Equal entries are not always repeated. Toxic doses and inconclusive results are not listed.
Test system: CD2F1 mice, L1210 leukemia ip, survival T/C
Experiment: NCI In Vivo Anticancer Drug Screen. Data for tumor model L1210 Leukemia (intraperitoneal) in CD2F1 (CDF1) mice
Conditions: higher = longer survival
Outline: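 Antitumor effect is scored in animals hosting a serially transplanted tumor. Values compare compound-dosed animals against vehicle-only controls as a simple quotient.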

[1] = endpoint: mean survival time, dose: 75.0 mg/kg/injection, schedule: Q01DX001 (ip), vehicle: saline
[2] = endpoint: mean survival time, dose: 10.0 mg/kg/injection, schedule: Q04DX003 (ip), vehicle: saline
[3] = endpoint: mean survival time, dose: 100.0 mg/kg/injection, schedule: Q01DX009 (ip), vehicle: saline with Tween-80
[4] = endpoint: mean survival time, dose: 200.0 mg/kg/injection, schedule: Q01DX009 (ip), vehicle: saline with Tween-80
[5] = endpoint: mean survival time, dose: 12.5 mg/kg/injection, schedule: Q01DX009 (ip), vehicle: saline
[6] = endpoint: mean survival time, dose: 25.0 mg/kg/injection, schedule: Q04DX003 (ip), vehicle: saline
[7] = endpoint: mean survival time, dose: 50.0 mg/kg/injection, schedule: Q04DX003 (ip), vehicle: saline
[8] = endpoint: mean survival time, dose: 100.0 mg/kg/injection, schedule: Q01DX009 (ip), vehicle: saline
[9] = endpoint: mean survival time, dose: 100.0 mg/kg/injection, schedule: Q04DX003 (ip), vehicle: saline with Tween-80
[10] = endpoint: mean survival time, dose: 200.0 mg/kg/injection, schedule: Q04DX003 (ip), vehicle: saline with Tween-80
[11] = endpoint: mean survival time, dose: 400.0 mg/kg/injection, schedule: Q04DX003 (ip), vehicle: saline with Tween-80
[12] = endpoint: mean survival time, dose: 10.0 mg/kg/injection, schedule: Q01DX009 (ip), vehicle: saline with Tween-80
[13] = endpoint: mean survival time, dose: 20.0 mg/kg/injection, schedule: Q01DX009 (ip), vehicle: saline with Tween-80
[14] = endpoint: mean survival time, dose: 50.0 mg/kg/injection, schedule: Q04DX002 (ip), vehicle: saline with Tween-80
[15] = endpoint: mean survival time, dose: 100.0 mg/kg/injection, schedule: Q04DX002 (ip), vehicle: saline with Tween-80
[16] = endpoint: mean survival time, dose: 200.0 mg/kg/injection, schedule: Q04DX002 (ip), vehicle: saline with Tween-80
[17] = endpoint: mean survival time, dose: 400.0 mg/kg/injection, schedule: Q04DX002 (ip), vehicle: saline with Tween-80

In the case of `Oc1ccc(O)cc1`, the T/C (endpoint: mean survival time, dose: 33.0 mg/kg/injection, schedule: Q01DX009 (ip), vehicle: saline) is reported as 102 % of control and 103 % of control, the T/C [1] is reported as 107 % of control and the T/C (endpoint: mean survival time, dose: 75.0 mg/kg/injection, schedule: Q01DX009 (ip), vehicle: saline) is reported as 120 % of control. For the same compound, the T/C (endpoint: mean survival time, dose: 113.0 mg/kg/injection, schedule: Q01DX009 (ip), vehicle: saline) was 96 % of control.
In the case of `CN(C)Cc1cc(OCc2ccccc2)cc(CN(C)C)c1O`, the T/C [1] is reported as 108 % of control.
For `CCCCCCCCCCCCCCNC(=O)C[N+](C)(C)Cc1ccccc1`, the T/C (endpoint: mean survival time, dose: 0.25 mg/kg/injection, schedule: Q01DX009 (ip), vehicle: saline sonified) was 101 % of control, the T/C (endpoint: mean survival time, dose: 0.5 mg/kg/injection, schedule: Q01DX009 (ip), vehicle: saline sonified) was 95 % of control and the T/C (endpoint: mean survival time, dose: 1.0 mg/kg/injection, schedule: Q01DX009 (ip), vehicle: saline sonified) was 95 % of control. For the same compound, the T/C (endpoint: mean survival time, dose: 5.0 mg/kg/injection, schedule: Q04DX003 (ip), vehicle: saline) was 96 % of control and the T/C [2] was 96 % of control.
With `S=C(S)Nc1cccc2ccccc12` the T/C [3] was 93 % of control, the T/C [4] was 97 % of control and the T/C (endpoint: mean survival time, dose: 400.0 mg/kg/injection, schedule: Q01DX009 (ip), vehicle: saline with Tween-80) was 93 % of control.
`CN(C)N=Nc1ccc(N=Nc2ccc(N(CCO)CCO)cc2)cc1` was tested, and the T/C (endpoint: mean survival time, dose: 100.0 mg/kg/injection, schedule: Q01DX001 (ip), vehicle: saline) was 102 % of control, the T/C (endpoint: mean survival time, dose: 200.0 mg/kg/injection, schedule: Q01DX001 (ip), vehicle: saline) was 93 % of control and the T/C (endpoint: mean survival time, dose: 400.0 mg/kg/injection, schedule: Q01DX001 (ip), vehicle: saline) was 101 % of control.
With `O=c1[nH]cc(F)c(=O)n1C1CCCCO1` (configuration not stated) the T/C [5] was 121 % of control, the T/C (endpoint: mean survival time, dose: 12.5 mg/kg/injection, schedule: Q04DX003 (ip), vehicle: saline) was 98 % of control and the T/C [6] was 102 % of control. The T/C (endpoint: mean survival time, dose: 50.0 mg/kg/injection, schedule: Q01DX009 (ip), vehicle: saline) was 156 % of control, the T/C [7] was 98 % of control and the T/C [8] was 175 % of control and 184 % of control. The T/C (endpoint: mean survival time, dose: 100.0 mg/kg/injection, schedule: Q04DX003 (ip), vehicle: saline) was 100 % of control.
`CCN1CCN(CC)C1c1ccccc1` was tested, and the T/C [3] was 103 % of control and the T/C [4] was 98 % of control.
For `Nc1nc(N)c(-c2cccc(Cl)c2)c(CBr)n1`, the T/C (endpoint: mean survival time, dose: 6.25 mg/kg/injection, schedule: Q01DX009 (ip), vehicle: saline) was 102 % of control, the T/C [5] was 103 % of control and the T/C (endpoint: mean survival time, dose: 25.0 mg/kg/injection, schedule: Q01DX009 (ip), vehicle: saline) was 109 % of control.
With `O=C1CC(c2ccccc2)C(c2ccccc2)N1Cc1ccccc1` (configuration not stated) the T/C (endpoint: mean survival time, dose: 100.0 mg/kg/injection, schedule: Q04DX003 (ip), vehicle: other) was 93 % of control, the T/C (endpoint: mean survival time, dose: 200.0 mg/kg/injection, schedule: Q04DX003 (ip), vehicle: other) was 93 % of control and the T/C (endpoint: mean survival time, dose: 400.0 mg/kg/injection, schedule: Q04DX003 (ip), vehicle: other) was 97 % of control.
`CC(=O)c1ccc(Oc2ccc(/C(C)=N\N=C(N)N)cc2)cc1` was tested, and the T/C [6] was 100 % of control, the T/C [7] was 108 % of control and the T/C (endpoint: mean survival time, dose: 75.0 mg/kg/injection, schedule: Q01DX001 (ip), vehicle: other) was 100 % of control. For the same compound, the T/C (endpoint: mean survival time, dose: 150.0 mg/kg/injection, schedule: Q01DX001 (ip), vehicle: other) was 112 % of control.
With `NNC(=O)c1cccc(N)c1` the T/C (endpoint: mean survival time, dose: 25.0 mg/kg/injection, schedule: Q01DX009 (ip), vehicle: saline sonified) was 98 % of control, the T/C (endpoint: mean survival time, dose: 50.0 mg/kg/injection, schedule: Q01DX009 (ip), vehicle: saline sonified) was 102 % of control and the T/C (endpoint: mean survival time, dose: 100.0 mg/kg/injection, schedule: Q01DX009 (ip), vehicle: saline sonified) was 102 % of control. The T/C [9] was 104 % of control.
For `COC(=O)C(=C(C)C)[N+](=O)[O-]`, the T/C [9] was 91 % of control, the T/C [10] was 95 % of control and the T/C [11] was 95 % of control.
In the case of `C/C=C\C[P+](c1ccccc1)(c1ccccc1)c1ccccc1`, the T/C (endpoint: mean survival time, dose: 5.0 mg/kg/injection, schedule: Q01DX001 (ip), vehicle: saline with Tween-80) is reported as 101 % of control, the T/C (endpoint: mean survival time, dose: 5.0 mg/kg/injection, schedule: Q01DX009 (ip), vehicle: saline with Tween-80) is reported as 102 % of control and the T/C (endpoint: mean survival time, dose: 10.0 mg/kg/injection, schedule: Q01DX001 (ip), vehicle: saline with Tween-80) is reported as 104 % of control. The T/C [12] was 102 % of control, the T/C (endpoint: mean survival time, dose: 20.0 mg/kg/injection, schedule: Q01DX001 (ip), vehicle: saline with Tween-80) was 104 % of control and the T/C [13] was 122 % of control.
With `O=[N+]([O-])O.[Ho]` the T/C [8] was 94 % of control.
`OC1CCCCC1CCl` (configuration not stated) was tested, and the T/C (endpoint: mean survival time, dose: 50.0 mg/kg/injection, schedule: Q01DX001 (ip), vehicle: carboxymethylcellulose (CMC)) was 103 % of control, the T/C (endpoint: mean survival time, dose: 100.0 mg/kg/injection, schedule: Q01DX001 (ip), vehicle: carboxymethylcellulose (CMC)) was 97 % of control and the T/C (endpoint: mean survival time, dose: 200.0 mg/kg/injection, schedule: Q01DX001 (ip), vehicle: carboxymethylcellulose (CMC)) was 97 % of control. For the same compound, the T/C (endpoint: mean survival time, dose: 400.0 mg/kg/injection, schedule: Q01DX001 (ip), vehicle: carboxymethylcellulose (CMC)) was 103 % of control.
For `Cc1ccc(/C(=N\Nc2ccc([N+](=O)[O-])cc2[N+](=O)[O-])C2CC2c2ccccc2)cc1` (configuration not stated), the T/C [14] was 91 % of control, the T/C [15] was 105 % of control and the T/C [16] was 91 % of control.
In the case of `COC(=O)C(C#N)=C(C)C`, the T/C [12] is reported as 110 % of control, the T/C [2] is reported as 96 % of control and the T/C [13] is reported as 101 % of control. The T/C (endpoint: mean survival time, dose: 20.0 mg/kg/injection, schedule: Q04DX003 (ip), vehicle: saline) was 96 % of control, the T/C (endpoint: mean survival time, dose: 40.0 mg/kg/injection, schedule: Q01DX009 (ip), vehicle: saline with Tween-80) was 104 % of control and the T/C (endpoint: mean survival time, dose: 40.0 mg/kg/injection, schedule: Q04DX003 (ip), vehicle: saline) was 96 % of control.
In the case of `CN(C)C(=O)CCC(NC(=O)c1ccc(N(C)Cc2cnc3nc(N)nc(N)c3n2)cc1)C(=O)O` (configuration not stated), the T/C (endpoint: mean survival time, dose: 1.0 mg/kg/injection, schedule: Q01DX009 (ip), vehicle: sodium bicarbonate) is reported as 103 % of control and the T/C (endpoint: mean survival time, dose: 10.0 mg/kg/injection, schedule: Q01DX009 (ip), vehicle: sodium bicarbonate) is reported as 108 % of control.
In the case of `COc1cc2c(cc1OC)NC(=O)CC(=O)N2`, the T/C [10] is reported as 91 % of control and the T/C [11] is reported as 98 % of control.
In the case of `O=C1CCc2ccccc21` (tested in a mixture with another compound), the T/C [14] is reported as 96 % of control, the T/C [15] is reported as 101 % of control and the T/C [16] is reported as 96 % of control.
`CCCCCCCC1C(=O)OC2CC3C(C)=CC(=O)C(O)C3(C)C3C4(O)OCC23C1C(C)C4O` (configuration not stated) was tested, and the T/C (endpoint: median survival time, dose: 2.5 mg/kg/injection, schedule: Q01DX005 (ip), vehicle: Klucel (hydroxypropylcellulose) (HPC)) was 109 % of control, the T/C (endpoint: median survival time, dose: 5.0 mg/kg/injection, schedule: Q01DX005 (ip), vehicle: Klucel (hydroxypropylcellulose) (HPC)) was 106 % of control and the T/C (endpoint: median survival time, dose: 10.0 mg/kg/injection, schedule: Q01DX005 (ip), vehicle: Klucel (hydroxypropylcellulose) (HPC)) was 102 % of control. The T/C (endpoint: median survival time, dose: 20.0 mg/kg/injection, schedule: Q01DX005 (ip), vehicle: Klucel (hydroxypropylcellulose) (HPC)) was 108 % of control.
For `CCOCCNc1ccc([N+](=O)[O-])cc1[N+](=O)[O-]`, the T/C [15] was 91 % of control, the T/C [16] was 91 % of control and the T/C [17] was 98 % of control.
With `CC12CCC(=O)C1O2` (configuration not stated) the T/C (endpoint: mean survival time, dose: 12.5 mg/kg/injection, schedule: Q04DX002 (ip), vehicle: saline with Tween-80) was 103 % of control, the T/C (endpoint: mean survival time, dose: 25.0 mg/kg/injection, schedule: Q04DX002 (ip), vehicle: saline with Tween-80) was 100 % of control and the T/C [14] was 100 % of control.
In the case of `O=C(Nc1cccc(C(F)(F)F)c1)c1ccc(Cl)cc1`, the T/C [15] is reported as 97 % of control, the T/C [16] is reported as 105 % of control and the T/C [17] is reported as 105 % of control.
`NC(=O)C(F)(F)F` was tested, and the T/C [8] was 98 % of control, the T/C (endpoint: mean survival time, dose: 200.0 mg/kg/injection, schedule: Q01DX009 (ip), vehicle: saline) was 98 % of control and the T/C (endpoint: mean survival time, dose: 400.0 mg/kg/injection, schedule: Q01DX009 (ip), vehicle: saline) was 100 % of control.
For `O=S(=O)(O)c1ccc2ncccc2c1`, the T/C [14] was 111 % of control.
In the case of `CCOC(=O)C(CCC#N)(CCC#N)C(=O)O`, the T/C (endpoint: mean survival time, dose: 100.0 mg/kg/injection, schedule: Q04DX002 (ip), vehicle: saline) is reported as 98 % of control, the T/C (endpoint: mean survival time, dose: 200.0 mg/kg/injection, schedule: Q04DX002 (ip), vehicle: saline) is reported as 111 % of control and the T/C (endpoint: mean survival time, dose: 400.0 mg/kg/injection, schedule: Q04DX002 (ip), vehicle: saline) is reported as 117 % of control.
In the case of `COC1(c2ccccc2)C(c2ccccc2)=CC(=O)/C1=C\c1ccccc1` (configuration not stated), the T/C [9] is reported as 98 % of control, the T/C [10] is reported as 91 % of control and the T/C [11] is reported as 86 % of control.
